Source: patent US20240209022A1, “NOVEL PEPTIDE HAVING ANTI-INFLAMMATORY AND TISSUE REGENERATIVE ACTIONS” (KOREA RESEARCH INSTITUTE OF BIOSCIENCE AND BIOTECHNOLOGY, priority 2020, published 2024)

What was measured:
[1] = system: MIA-induced degenerative arthritis model; assay: MIA-induced degenerative arthritis model; format: in vivo, C57BL/6J mice; settings: vs PBS buffer group; for diameter of the knee joint: day 1 after MIA injection, i.p.
Method: As a degenerative arthritis model, 9-week-old specific pathogen free (SPF) male C57BL/6J mice were anesthetized, the area around the right knee joint was cleanly shaved, and 10 μL of MIA solution (monosodium iodoacetate 0.5 mg in 10 μL 0.9% sterile saline) was injected into the knee joint cavity to induce arthritis. From 3 days before MIA (monosodium iodoacetate) solution injection, Amuc_1409 or PEP001, PEP002, PEP003, PEP004, PEP005, PEP006, PEP007, PEP008, PEP009, PEP010, PEP011, PEP012, or PEP013 was dissolved in PBS buffer at a concentration of 6.7 μM and then injected into the mouse peritoneal cavity at 150 μL per animal once a day at the same time. On day 3 (0 days) after administration of Amuc_1409 or PEP001 to PEP013, an additional intraperitoneal injection was given 1 hour before MIA injection, the drug was intraperitoneally injected once a day at the same time after MIA injection, and the experiment was terminated on the 30th day after MIA injection. In the control group, the same volume of PBS buffer was injected intraperitoneally. After MIA injection, the diameter of the knee joint was measured using a caliper for 7 days at 2-day intervals (0, 1, 3, 5, and 7 days) to evaluate swelling caused by inflammatory changes of the joint. […] At this time, the weight bearing on the limb was lower as arthritis was more severe. The weight-bearing weight (g) of each of both paws was measured, and in this experiment, the value was expressed as the ratio (%) of the right hind limb with arthritis to the total hind limb. Weight bearing ratio (%)=weight-bearing weight of right hind limb with arthritis (g)/weight-bearing weight of both hind limbs (g)×100 After termination of the experiment, the test animals were sacrificed, then the knee joint tissue of the mouse was fixed with 10% neutral buffered formalin, and the bone was decalcified with a 0.5 M EDTA solution. Next, the joint tissue was embedded in paraffin to prepare a 5 μm joint section, and Safranin O staining was performed to histopathologically analyze the degree of damage to the cartilage tissue. At this time, the degree of damage to the cartilage tissue was evaluated by examining the degree of safranin O staining of the sections and scored according to OARSI (Osteoarthritis Research Society International grade) guidelines. The scoring criteria according to the OARSI guidelines are as follows (Table 1). [table]

[2] = system: collagen induced arthritis (CIA) model; assay: Collagen induced arthritis (CIA) rheumatoid arthritis model; format: in vivo, DBA/1J mice; settings: vs PBS buffer group; for thickness of the ankle joint: at the end of the experiment
[3] = system: animal model of metabolic disease accompanied by obesity/diabetes and chronic inflammation; assay: High-fat diet obesity/diabetic metabolic disease model; format: in vivo, C57BL/6J mice; settings: for blood glucose in insulin resistance experiment (ITT): after insulin administration, time as stated in the value; for blood glucose in insulin resistance experiment (ITT) / AUC value of the insulin resistance experiment / body weight / LDL-C level in blood / TC (total cholesterol) level in blood / abdominal fat: vs PBS buffer group; for fasting blood glucose: after fasting for 16 hours at the end of the test; for body weight: oral, 3 weeks on high-fat diet
Method: An animal model of metabolic disease accompanied by obesity/diabetes and chronic inflammation was induced by feeding a high-fat diet.
The experiment in the groups administered with Amuc_1409 or PEP001 to PEP005 was performed using 8-week-old SPF male C57BL/6J mice, and the metabolic disease accompanied by obesity/diabetes and chronic inflammation was induced by ad libitum feeding of a high-fat diet for 45 weeks or 8 weeks. Specifically, mice fed a high-fat diet for 45 weeks were fed a high-fat diet for an additional 3 weeks, and Amuc_1409 was dissolved in PBS buffer at a concentration of 2.4 μM and then orally administered to the mice by 150 μL per animal at the same time once a day until the end of the experiment, or mice fed a high-fat diet for 8 weeks were fed a high-fat diet for an additional 3 weeks, and PEP001, PEP002, PEP003, PEP004, or PEP005 was dissolved in PBS buffer at a concentration of 2.4 μM and then orally administered to the mice by 150 μL per animal at the same time once a day until the end of the experiment. To the control group, PBS buffer was orally administered in the same manner.
For the experiment in the groups administered with PEP006 to PEP013, 8-week-old male C57BL/6J mice were used, and the metabolic disease accompanied by obesity/diabetes and chronic inflammation was induced by ad libitum feeding of a high-fat diet for 32, 50, or 53 weeks. Mice fed a high-fat diet for 32 weeks were fed a high-fat diet for an additional 3 weeks, and a novel tetrapeptide PEP006 was dissolved in PBS buffer at a concentration of 0.15 μg/150 μL (PEP006) and then orally administered to the mice by 150 μL per animal at the same time until the end of the test, mice fed a high-fat diet for 50 weeks were fed a high-fat diet for an additional 3 weeks, and a novel tetrapeptide PEP007, PEP008, PEP009, or PEP010 was dissolved in PBS buffer at a concentration of 0.2 μg/150 μL (PEP007 to PEP013) and then orally administered to the mice by 150 μL per animal at the same time until the end of the test, and mice fed a high-fat diet for 53 weeks were fed a high-fat diet for an additional 3 weeks, and a novel […] PEP011, PEP012, or PEP013 was dissolved in PBS buffer at a concentration of 0.2 μg/150 μL (PEP007 to PEP013) and then orally administered to the mice by 150 μL per animal at the same time until the end of the test. To the control group, PBS buffer was orally administered in the same manner.
For all animals, general symptoms were observed immediately before administration at the start of administration, and the body weight was measured until the end of the test after group separation.
Insulin (Humalog, 1 unit/kg) was intraperitoneally injected into mice fasted for 4 hours at 2 weeks after the start of test substance administration (2 weeks in groups administered with Amuc_1409 and PEP001 to PEP005 and 3 weeks in groups administered with PEP006 to PEP013), and then blood glucose at 30 minutes, 60 minutes, 90 minutes, and 120 minutes was measured from a small amount of blood obtained through a wound at the tip of the tail using ACCU-CHECK (Roche), thereby performing an insulin tolerance test (ITT).
At the end of the test, fasting blood glucose was measured from a small amount of blood obtained through a wound at the tip of the tail of the mouse fasted for 16 hours using ACCU-CHECK, and blood was collected from the orbital venous plexus using a heparin-treated capillary tube. The collected blood was immediately centrifuged at 10,000 rpm (4° C.) for 10 minutes to separate plasma, and then subjected to analysis of total cholesterol (TC) and low-density lipoprotein cholesterol (LDL-C), which are blood abnormal lipid indicators, using an automated blood biochemical analyzer.

[4] = 2 weeks and 4 weeks after MIA injection
[5] = days 3, 5, and 7 after MIA injection

Substance	weight bearing ratio ([1]; 2 weeks after MIA injection)	weight bearing ratio ([1]; 4 weeks after MIA injection)	diameter of the knee joint [1]	thickness of the knee joint ([1]; day 3 after MIA injection)	thickness of the knee joint ([1]; day 5 after MIA injection)	thickness of the knee joint ([1]; day 7 after MIA injection)	thickness of the ankle joint [2]	arthritis index (clinical score by date) [2]	swelling of the hind paws by macrophotography [2]	blood glucose in insulin resistance experiment (ITT) [3]	AUC value of the insulin resistance experiment [3]	weight bearing ratio [1, 4]	thickness of the knee joint [1, 5]	fasting blood glucose [3]	body weight [3]	LDL-C level in blood [3]	TC (total cholesterol) level in blood [3]	abdominal fat [3]	maintenance of the decreased blood glucose in insulin resistance experiment ([3]; until 120 minutes after insulin)
IGAY (PEP008)	significantly increased	significantly increased	significantly decreased	significantly decreased	significantly decreased	significantly decreased	significantly decreased	significantly decreased from day 30 to day 32 after the first CII	remarkably improved	decreased to a significant level from 30 minutes to 120 minutes after insulin administration	significantly decreased								
AVSSI (PEP002)			significantly decreased				significantly decreased	significantly decreased from day 26 after the first CII injection to the experiment end day	reduced overall	decreased at 30 minutes after insulin administration	decreased	significantly increased	significantly decreased	decreased	decreased from the initial body weight	significantly decreased	decreased	decreased	
AQS [PEP011]							significantly decreased	significantly decreased from day 30 after the first CII injection to the experiment end day	relieved overall	decreased close to a significant level from 30 minutes to 120 minutes after insulin administration	decreased close to a significant level	significantly improved							
AGS [PEP012]							significantly decreased	significantly decreased from day 32 after the first CII injection to the experiment end day	relieved overall	decreased close to a significant level from 30 minutes to 120 minutes after insulin administration	decreased close to a significant level	significantly improved							
RGAY (PEP007)	significantly increased	significantly increased	significantly decreased	significantly decreased	tended to decrease	significantly decreased	significantly decreased	significantly decreased from day 28 after the first CII injection to the experiment end day	remarkably improved	decreased to a significant level from 30 minutes to 120 minutes after insulin administration	decreased close to a significant level								
AVSSIKGAY (PEP001)			tended to decrease				significantly decreased	significantly decreased from day 30 after the first CII injection to the experiment end day	reduced overall	decreased at 30 minutes after insulin administration	decreased	significantly increased	significantly decreased		decreased from the initial body weight	significantly decreased	decreased	decreased	
KGAY (PEP003)			significantly decreased				significantly decreased	significantly decreased from day 26 after the first CII injection to the experiment end day	reduced overall	decreased at 30 minutes after insulin administration	decreased	significantly increased	significantly decreased	decreased	significantly decreased	significantly decreased	significantly decreased	decreased	significantly maintained until 120 minutes
SGAY (PEP009)	tended to increase close to a significant level	significantly increased	tended to decrease	significantly decreased	tended to decrease	significantly decreased	significantly decreased	significantly decreased from day 30 after the first CII injection to the experiment end day	remarkably improved	decreased to a significant level from 30 minutes to 120 minutes after insulin administration	decreased close to a significant level								
